Tests used:
[1] = inhibitory concentration against Con A stimulated thymocytes; assay type: functional
[2] = Inhibitory concentration against Con A stimulated thymocytes; assay type: functional

Row | IC50 [1] | IC50 [2] | SMILES
1 | 8 µM | – | CC[C@@H]1NC(=O)[C@H]([C@@H](C)O)N(C)C(=O)[C@H](C(C)C)N(C)C(=O)[C@H](CC(C)C)N(C)C(=O)[C@H](CC(C)C)N(C)C(=O)[C@@H](C)NC(=O)[C@H](C)NC(=O)[C@H](CC(C)C)N(C)C(=O)[C@H](C(C)C)NC(=O)[C@H](CC(C)C)N(C)C(=O)CN(C)C1=O
2 | – | 0.6 µM | CC[C@@H]1NC(=O)[C@H]([C@H](O)C(C)C)N(C)C(=O)[C@H](C(C)C)N(C)C(=O)[C@H](CC(C)C)N(C)C(=O)[C@H](CC(C)C)N(C)C(=O)[C@@H](C)NC(=O)[C@H](C)NC(=O)[C@H](CC(C)C)N(C)C(=O)[C@H](C(C)C)NC(=O)[C@H](CC(C)C)N(C)C(=O)CN(C)C1=O
3 | – | 15 µM | CC[C@@H]1NC(=O)[C@H](CC)N(C)C(=O)[C@H](C(C)C)N(C)C(=O)[C@H](CC(C)C)N(C)C(=O)[C@H](CC(C)C)N(C)C(=O)[C@@H](C)NC(=O)[C@H](C)NC(=O)[C@H](CC(C)C)N(C)C(=O)[C@H](C(C)C)NC(=O)[C@H](CC(C)C)N(C)C(=O)CN(C)C1=O

Row | SMILES | IC50 [1] | IC50 [2]
4 | CCCCC(C)[C@@H](O)[C@H]1C(=O)N[C@@H](CC)C(=O)N(C)CC(=O)N(C)[C@@H](CC(C)C)C(=O)N[C@@H](C(C)C)C(=O)N(C)[C@@H](CC(C)C)C(=O)N[C@@H](C)C(=O)N[C@H](C)C(=O)N(C)[C@@H](CC(C)C)C(=O)N(C)[C@@H](CC(C)C)C(=O)N(C)[C@@H](C(C)C)C(=O)N1C (some centres undefined) | – | 0.01 µM

Reference: ChEMBL document CHEMBL1123292, “Synthesis and antimitogenic activities of four analogues of cyclosporin A modified in the 1-position” (J Med Chem, 1986)
